Results as given in patent publication US5656726A, “Peptide inhibitors of urokinase receptor activity” (Chiron Corporation, priority 1995, dated 1997).
pKd: −log10 of the molar value. Read-outs that look alike come from different tables or passages of the source. Ends that are not written are not given here. Peptide text beside a SMILES is read from it.

What was measured:
[1] = biological target: T1, recombinant human urokinase receptor (truncated, soluble; suPAR) (Homo sapiens, UniProt Q03405); assay: 125I-ATF competition binding on immobilized soluble recombinant human urokinase receptor; conditions: synthesized peptide, read-out: Affinity
T1 construct: expressed as a truncated, soluble molecule as described previously for mouse L-cells (Masucci et al., J Biol Chem (1991) 266:8655); made in house

[2] = biological target: T2, substance P receptor ("SPR") (Homo sapiens, UniProt P25103); assay: Recovery of phage on Sf9 cells expressing substance P receptor (control); format: binding; conditions: phage displaying the peptide
T2 construct: expressed in transfected cells; host or cells: Sf9 insect cells
Method: (§1) 3.) The phage selected in round 2 were reselected on SI9 cells expressing fluPAR (day 2 post-infection) as described for round 1 (2.8×10^10 phage on 10^6 St9 cells). The yield of binding phage from this round was 5.40% (1.5×10^9 pfu), indicating a substantial enrichment in binding phage. Sample phage from the urea eluate were cloned, and their DNAs isolated and sequenced. Binding was assayed against Sf9 cells expressing fluPAR, and Sf9 cells expressing substance P receptor ("SPR," as a control).

[3] = biological target: T3, full length huPAR ("fluPAR") (Homo sapiens, UniProt Q03405); assay: Recovery of phage on Sf9 cells expressing full length huPAR; format: binding
T3 construct: Sf9 cells expressing full length huPAR ("fluPAR", day 2 post infection); expressed in transfected cells; host or cells: Sf9 insect cells, infected (day 2 post infection)
Method: 1.) 15 mer phage (2.5×10^10) prepared as described above were selected by coincubation with 10^6 Sf9 cells expressing full length huPAR ("fluPAR", day 2 post infection) at room temperature for 60 minutes in Grace's medium with 2% nonfat milk. Binding phage were eluted with 6M urea (pH 2.2), the pH neutralized by adding 2M Tris-HCl, and assayed. The yield of binding phage was 0.0013% (3.3×10^5 pfu). The phage were amplified on solid agar plates as plaques, eluted with Tris-buffered saline, and precipitated with polyethylene glycol.
as §1

[4] = system: SaOS-2 osteosarcoma cell line; conditions: Rabbani et al.; cited from earlier work
U937 cells = conditions: Rabbani et al.; cited from earlier work
uPAR = uPAR (Homo sapiens, UniProt Q03405); conditions: Appella et al., cited from earlier work
[5] = corrected to 100 pM ATF, 0.3 μg/mL suPAR conditions, corrections about 3 × from previous assay conditions

T1 sequence (Q03405 23-299 limits assumed): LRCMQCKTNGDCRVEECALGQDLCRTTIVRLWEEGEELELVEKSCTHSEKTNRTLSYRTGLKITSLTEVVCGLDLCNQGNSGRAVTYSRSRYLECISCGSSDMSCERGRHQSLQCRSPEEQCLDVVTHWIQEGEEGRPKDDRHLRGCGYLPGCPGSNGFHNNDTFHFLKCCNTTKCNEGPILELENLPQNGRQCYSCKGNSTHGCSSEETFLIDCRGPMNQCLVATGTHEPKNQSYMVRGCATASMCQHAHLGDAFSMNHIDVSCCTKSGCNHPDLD
T3 sequence (Q03405 23-335): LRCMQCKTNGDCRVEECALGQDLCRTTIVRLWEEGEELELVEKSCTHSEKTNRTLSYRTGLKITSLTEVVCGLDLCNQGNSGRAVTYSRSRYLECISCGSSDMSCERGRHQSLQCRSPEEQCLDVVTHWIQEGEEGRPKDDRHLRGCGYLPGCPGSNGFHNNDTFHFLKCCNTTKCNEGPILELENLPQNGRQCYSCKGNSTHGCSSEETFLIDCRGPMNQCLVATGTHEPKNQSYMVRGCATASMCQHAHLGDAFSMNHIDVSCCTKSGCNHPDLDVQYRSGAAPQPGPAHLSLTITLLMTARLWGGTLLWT
Sequence of uPAR (Q03405 23-335): as above
T2 sequence (P25103 whole entry, species assumed): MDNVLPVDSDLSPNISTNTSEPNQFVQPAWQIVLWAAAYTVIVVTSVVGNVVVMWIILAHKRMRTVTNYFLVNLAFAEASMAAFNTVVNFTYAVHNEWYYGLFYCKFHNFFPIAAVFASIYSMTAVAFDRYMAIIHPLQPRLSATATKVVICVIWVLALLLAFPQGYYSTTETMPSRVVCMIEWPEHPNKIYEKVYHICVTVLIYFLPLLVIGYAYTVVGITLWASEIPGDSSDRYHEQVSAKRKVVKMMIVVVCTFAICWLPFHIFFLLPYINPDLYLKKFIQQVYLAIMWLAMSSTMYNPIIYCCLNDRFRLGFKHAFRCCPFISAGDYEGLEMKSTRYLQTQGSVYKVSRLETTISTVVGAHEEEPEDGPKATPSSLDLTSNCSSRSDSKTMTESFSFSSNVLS

For CC(C)C[C@H](NC(=O)[C@H](CCCCN)NC(=O)[C@H](CO)NC(=O)[C@H](Cc1ccc(O)cc1)NC(=O)[C@H](CCC(N)=O)NC(=O)[C@@H](NC(=O)[C@H](CO)NC(=O)[C@H](CCC(=O)O)NC(=O)[C@H](C)N)C(C)C)C(=O)N[C@@H](Cc1c[nH]c2ccccc12)C(=O)N[C@@H](CCCCN)C(=O)N1CCC[C@H]1C(=O)N[C@@H](CC(N)=O)C(=O)N[C@H](C(=O)N[C@H](C(=O)N[C@@H](CC(C)C)C(=O)N[C@@H](C)C(N)=O)[C@@H](C)O)[C@@H](C)O (H-AESVQYSKLWKPNTTLA-NH2), the pKd [1, 5] was under 4.30.

For CC[C@H](C)[C@H](NC(=O)[C@H](Cc1c[nH]cn1)NC(=O)[C@H](CCCCN)NC(=O)[C@H](CC(=O)O)NC(=O)[C@H](Cc1c[nH]cn1)NC(=O)[C@H](Cc1c[nH]c2ccccc12)NC(=O)[C@H](CC(C)C)NC(=O)[C@H](CC(=O)O)NC(=O)[C@H](CCSC)NC(=O)[C@H](Cc1ccccc1)NC(=O)[C@H](CC(C)C)NC(=O)[C@@H](NC(=O)[C@H](CCC(=O)O)NC(=O)[C@H](C)N)[C@@H](C)O)C(=O)N[C@@H](CC(C)C)C(=O)N[C@@H](CC(C)C)C(=O)N[C@H](C(N)=O)[C@@H](C)O (H-AETLFMDLWHDKHILLT-NH2), the pKd ([1]; assay performed at 100 pM ATF, 0.3 μg/mL suPAR in 200 μL (starred values)) was 5.15.

Compound CC[C@H](C)[C@H](NC(=O)[C@H](Cc1c[nH]c2ccccc12)NC(=O)[C@H](CCC(=O)O)NC(=O)[C@H](C)N)C(=O)N[C@H](C(=O)N[C@@H](CO)C(=O)N[C@@H](CO)C(=O)N1CCC[C@H]1C(=O)N1CCC[C@H]1C(=O)N[C@@H](CC(C)C)C(=O)N[C@H](C(=O)N[C@@H](CCC(N)=O)C(=O)N[C@@H](Cc1ccc(O)cc1)C(=O)N[C@@H](CC(C)C)C(=O)N[C@@H](Cc1c[nH]c2ccccc12)C(=O)NCC(=O)N[C@@H](Cc1ccccc1)C(N)=O)[C@@H](C)O)[C@@H](C)O (H-AEWITSSPPLTQYLWGF-NH2) has a pKd [1, 5] of 5.00.

For CC[C@H](C)[C@H](NC(=O)[C@@H](NC(=O)[C@H](CCC(N)=O)NC(=O)[C@@H]1CCCN1C(=O)[C@H](CCC(=O)O)NC(=O)[C@@H]1CCCN1C(=O)[C@H](CC(C)C)NC(=O)[C@H](Cc1c[nH]cn1)NC(=O)[C@H](CC(C)C)NC(=O)[C@H](CC(N)=O)NC(=O)[C@H](Cc1ccc(O)cc1)NC(=O)[C@H](Cc1ccccc1)NC(=O)[C@H](CO)NC(=O)[C@H](Cc1c[nH]c2ccccc12)NC(=O)[C@H](CCC(=O)O)NC(=O)[C@H](C)N)[C@@H](C)O)C(=O)N[C@@H](Cc1ccccc1)C(N)=O (H-AEWSFYNLHLPEPQTIF-NH2), the pKd [1, 5] was 5.30.

With “AECLNGGTAVSNKYFSNIHWCN [Positive control, residues 13-32 of the EGFlike domain of urokinase (not selected from library)]” the “% Recovery SPR” value [2] was 0.008%, the “% Recovery huPAR” value ([3]; phage displaying the peptide, Sf9 cells expressing fluPAR) was 6.8% and the “Specificity (uPAR/SPR)” value ([3]; ratio of % recovery huPAR to SPR) was 857.

In the case of “fucosylated EGF-like domain: fucosylated EGF-like domain (uPA4-43, produced by cleavage from pro-uPA) (LHQVPSNCDCLNGGT(fucose)CVSNKYFSNIHWCNCPKKFGGQHCE; not fully specified; cysteine pairing not given here; UniProt P00749 24-63, looked up, fragment)”, the mitogenic activity [4] is listed as “mitogenic” and the mitogenic activity (U937 cells) is listed as “Neither fucosylated nor non-fucosylated EGF-like domain was mitogenic”.

For “uPA12-32: critical domain alone, residues 12-32 of the EGF-like domain of uPA (DCLNGGTCVSNKYFSNIHWCN; UniProt P00749 32-52, looked up, fragment)”, the pKd (uPAR; J. Biol Chem (1987), read-out: affinity for uPAR) is given as 7.40 and the “affinity relative to intact ATF (fold less)” value (uPAR) is given as “about 100 fold”.
